Laboratory results taken from US12234248B2, “Co-crystal compounds comprising lithium ions and isonicotinamide” (UNIVERSITY OF LIMERICK, priority 2017, dated 2025).
Values joined by “and” are separate entries in the source; they are usually repeats but may differ in a detail not shown here. Equal values may be shown once. One block for each molecule: values may come before it.

Columns and labels:
[1] = Stability of crystalline material under warm humid conditions (40° C., 75% relative humidity), PXRD before and after; type: physicochemical; conditions: for PXRD pattern after storage compared with initial pattern: after 2 months at 75% relative humidity and 40° C.; for Stable?: stored at 40° C., 75% relative humidity, stable = retained crystal form for at least two weeks by PXRD
Description: The stability of these compounds under warm humid conditions was assessed as follows:
The crystalline material was stored at 40° C. in an atmosphere of 75% relative humidity.
Compounds were classed as stable if they retained their crystal form for at least two weeks as verified by examination of PXRD patterns collected before and after exposure to humidity.
It can be seen that the pattern obtained after 2 months at 75% relative humidity and 40° C. (upper trace) in this case is different.

[2] = Bioavailability in vivo in rats: lithium in plasma and brain by ICP-OES after oral administration
Description: Male Sprague-Dawley rats, weighing 240-290 g, were treated through gastric intubation with formulations of lithium and compared with lithium carbonate as a reference. For each formulation a group of 12 rats was treated. 4 mEq/kg of lithium were orally administered, after suspension in 2 mL of corn seeds oil (“Olio Cuore”).
Four intervals' post-administration time (2, 24, 48 and 72 hours) were considered and three rats for each of them, employing the protocol used by Zaworotko and coworkers (Smith et al., Mol. Pharmaceutics 2013, 10, 4728-4738). At each time interval blood samples were collected through intra-cardiac […], these were treated with 50 μL of sodium heparin and centrifuged for 10 min at 1600 rpm. Plasma samples of approximately […] each were thus obtained. The brain was explanted in toto with perfusion with phosphate buffered saline (PBS) in order to preserve it in a viable state. The plasma and brain samples were immediately frozen at a temperature of −80° C., after measuring the weight of the brains.
In order to determine the concentration of the lithium by means of the ICP-OES (Inductively Coupled Plasma Optical Emission Spectometry) analysis, plasma and brain samples were purified and mineralized, respectively to obtain solutions suitable for analysis.
A 0.5 mL aliquot was taken from each sample, to which were added equal amounts of MilliQ water and concentrated nitric acid, in order to bring the lithium ion in solution in the form of LiNO3 and to obtain the precipitation of the proteins. At this point, each sample was sonicated for 10 min in an ultrasonic bath and diluted to a volume of 5.0 mL.
All samples were subjected to centrifugation for a period of 40 min, at a rotational speed of 6000 rpm, to obtain complete plasma proteins/solution separation. At the end supernatant liquid containing lithium was diluted to a final volume of 15 mL by adding MilliQ water. The obtained solutions were stored at a temperature of 4° C. until analysis.
The purpose of this phase was to obtain liquid samples, suitable to ICP-OES analysis, containing lithium in solution, starting from the solid organic tissue of the brain. The mineralization process allows the complete degradation of organic substances until the total transformation into simple inorganic substances.
The first operation performed was that the drying of the fabric, obtained through the use of a digester open PerkinElmer SPB 100-12: each sample of brain has been inserted in special containers Digitube™ 100 mL and maintained at a temperature of 80° C. for 120 min.
The second step involved the mineralization true and proper brain: each sample were added to 10 mL of concentrated nitric acid and 1.0 mL of hydrogen peroxide, then the system was brought to a temperature of 120° C. for 120 min. until the complete mineralization. With this procedure you get the desired biological degradation of organic compounds and the consequent passage of lithium in solution. The solutions thus obtained were collected, brought to a final volume of 20 mL with MilliQ water and preserved at a temperature of 4° C. until time of analysis.
In order to obtain the determination of lithium ion concentrations in the samples previously prepared, optical emission spectrometry inductively coupled plasma ICP-OES was used (PerkinElmer Optima 8000 spectrometer).
The analysis was conducted at the fixed wavelength of lithium (λ=670.784 nm) and the intensity of the radiation emitted by each sample was measured and compared standard solutions.
Plasma and brain concentration data were processed using a non-compartmental approach using WinNonlin® software (Pharsight Corporation, USA) and Microsoft Excel XP (Microsoft Corporation, […]).

[3] = rat brain, 4 mEq/kg lithium oral, non-compartmental
[4] = rat plasma, 4 mEq/kg lithium oral, non-compartmental

SMILES: COc1ccccc1C(=O)[O-].O=C(O)[C@@H]1CCCN1.[Li+] [Compound 1, [Li(2-methoxybenzoate)(L-proline)]n]
PXRD pattern after storage compared with initial pattern [1]: substantially identical | Stable? [1]: Yes | Cmax (brain) [2, 3]: 3.5067 µg/g | Tmax (brain) [2, 3]: 24 h | t½_Lambda_z (brain) ([2]; rat brain, 4 mEq/kg lithium oral, terminal phase): 18.9045 h | AUClast (brain) ([2]; rat brain, 4 mEq/kg lithium oral, time 0 to last quantifiable point): 172.2533 mg·h/g | Relative Brain BA (UL crystal forms, oral vs Li2CO3, oral) ([2]; rat brain, relative to lithium carbonate): 74.12% | Cmax (plasma) [2, 4]: 4120 ng/mL | Tmax (plasma) [2, 4]: 24 h | t½_Lambda_z (plasma) ([2]; rat plasma, 4 mEq/kg lithium oral, terminal phase): 12.9141 h | Relative Plasma BA (UL crystal forms, oral vs Li2CO3 oral) ([2]; rat plasma, relative to lithium carbonate): 58.42% | BRAIN CONC., Time(h) 2.00 ([2]; rat, 4 mEq/kg lithium oral, 2 h, lithium in brain, individual rats (three per time)): 0.96 µg/g and 0.71 µg/g and 0.68 µg/g | PLASMA CONC, Time(h) 2.00 ([2]; rat, 4 mEq/kg lithium oral, 2 h, lithium in plasma, individual rats (three per time)): 3430 ng/mL and 1780 ng/mL and 2310 ng/mL | BRAIN CONC., Time(h) 24.00 ([2]; rat, 4 mEq/kg lithium oral, 24 h, lithium in brain, individual rats (three per time)): 3.64 µg/g and 4.28 µg/g and 2.60 µg/g | PLASMA CONC, Time(h) 24.00 ([2]; rat, 4 mEq/kg lithium oral, 24 h, lithium in plasma, individual rats (three per time)): 3850 ng/mL and 6010 ng/mL and 2500 ng/mL | BRAIN CONC., Time(h) 48.00 ([2]; rat, 4 mEq/kg lithium oral, 48 h, lithium in brain, individual rats (three per time)): 2.81 µg/g and 4.50 µg/g and 2.06 µg/g | PLASMA CONC, Time(h) 48.00 ([2]; rat, 4 mEq/kg lithium oral, 48 h, lithium in plasma, individual rats (three per time)): 970 ng/mL and 1780 ng/mL and 850 ng/mL | BRAIN CONC., Time(h) 72.00 ([2]; rat, 4 mEq/kg lithium oral, 72 h, lithium in brain, individual rats (three per time)): 0.62 µg/g and 0.68 µg/g and 0.51 µg/g | PLASMA CONC, Time(h) 72.00 ([2]; rat, 4 mEq/kg lithium oral, 72 h, lithium in plasma, individual rats (three per time)): 230 ng/mL and 400 ng/mL and 310 ng/mL

SMILES: O=C(O)C(=O)O.O=C(O)C(=O)O.O=C([O-])C(=O)O.[Li+].c1c[nH]cn1.c1c[nH]cn1 [Compound 11, [(imidazolium)2^+(Li(hydogen oxalate)(oxalate))^−(oxalic acid)]]
PXRD pattern after storage compared with initial pattern [1]: different | Stable? [1]: No

SMILES: O=C(O)[C@@H]1CCCN1.O=C([O-])c1ccccc1.[Li+] [Compound 12, [Li(benzoate)(L-proline)]n]
Stable? [1]: Yes

SMILES: O=C(O)[C@@H]1CCCN1.O=C([O-])c1ccccc1O.[Li+] [Compound 14, [Li(salicylate)(L-proline)]n]
Stable? [1]: Yes

SMILES: O=C([O-])CCC(=O)[O-].[Li+].[Li+] [Compound 16, [Li2 (succinate)]n]
Stable? [1]: Yes

SMILES: CC(O)C(=O)[O-].CC(O)C(=O)[O-].NC(N)=O.O.O.[Li+].[Li+] (stereo not shown) [Compound 21, [(Li2(lactate)2(water)2)(urea)]n]
Stable? [1]: No

SMILES: CC1=CC(=O)[N-]S(=O)(=O)O1.O.[Li+] [Compound 23, [Li(acesulfame)(water)]n]
Stable? [1]: No

SMILES: NCCC(=O)O.NCCC(=O)O.O.O=C([O-])C(=O)[O-].[Li+].[Li+] [Compound 25, [Li2(oxalate)(beta-alanine)2(water)]n]
Stable? [1]: No

The remaining lines, values ahead:

Stable? [1]: Yes | AUC (Cerebral)/AUC (Plasma) ([2]; rat, in vivo): 1.208 | AUC(0-t) ([2]; rat, in vivo, po): 147 µg·h/mL | AUClast (brain) ([2]; rat, in vivo, po): 0.177 mg·h/g | Cmax (brain) ([2]; rat, in vivo, po): 4.0200 µg/g | Cmax (plasma) ([2]; rat, in vivo, po): 3976.7 ng/mL | Relative Brain BA (UL crystal forms, oral vs Li2CO3, oral) ([2]; rat, in vivo, po): 76.37% | Relative Plasma BA (UL crystal forms, oral vs Li2CO3 oral) ([2]; rat, in vivo, po): 54.52% | Tmax (brain) ([2]; rat, in vivo, po): 24 h | Tmax (plasma) ([2]; rat, in vivo, po): 24 h | t½_Lambda_z (brain) ([2]; rat, in vivo, po): 16.7775 h | t½_Lambda_z (plasma) ([2]; rat, in vivo, po): 14.0638 h
SMILES: NC(=O)c1ccncc1.NC(=O)c1ccncc1.O=C([O-])/C=C/C(=O)[O-].[Li+].[Li+] [Compound 2, [Li2(fumarate)(isonicotinamide)2]n]

Stable? [1]: No
SMILES: CNCC(=O)O.O.O=C([O-])c1cccnc1.[Li+] [Compound 9, [Li(nicotinate)(sarcosine)(water)]n]

Stable? [1]: Yes
SMILES: O=C([O-])c1ccccc1.[Li+] [Compound 18, [Li (benzoate)]n]

Stable? [1]: No
SMILES: CNCC(=O)O.O.O=C([O-])c1ccc(O)cc1.[Li+] [Compound 19, [Li(sarcosine)(4-hydroxybenzoate)(water)]n]

Stable? [1]: No
SMILES: NC(=O)c1ccncc1.O.O=C([O-])/C=C\C(=O)O.[Li+] [Compound 22, [Li(maleate)(isonicotinamide) (water)]n]
